Reference: publication PMC5448077, “Development of an orally available inhibitor of CLK1 for skipping a mutated dystrophin exon in Duchenne muscular dystrophy” (Scientific Reports, 2017)

Tests used:
Assay in all cases: biochemical
[1] = target: TYK2 (Homo sapiens, UniProt P29597)
In short: (§1)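 Reactions at room temperature in HEPES buffer (20 mM, pH 7.5, 0.01% Triton X-100, 2 mM DTT) lasted 1 or 5 h depending on kinase, with substrate peptide and ATP-metal. Phosphorylation read by electrophoretic mobility shift or IMAP polarization; kinase activity computed as P/(P + S).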

[2] = target: LATS2 (Homo sapiens, UniProt Q9NRM7)
In short: as §1

[3] = target: CDK2/CycE1 (Homo sapiens, UniProt P24941)
In short: as §1

[4] = target: PASK (Homo sapiens, UniProt Q96RG2)
In short: as §1

[5] = target: T1, PKCβ1 (Homo sapiens, UniProt P05771)
T1 construct: gene PRKCB; isoform beta 1
T1 sequence (P05771 whole entry, canonical isoform): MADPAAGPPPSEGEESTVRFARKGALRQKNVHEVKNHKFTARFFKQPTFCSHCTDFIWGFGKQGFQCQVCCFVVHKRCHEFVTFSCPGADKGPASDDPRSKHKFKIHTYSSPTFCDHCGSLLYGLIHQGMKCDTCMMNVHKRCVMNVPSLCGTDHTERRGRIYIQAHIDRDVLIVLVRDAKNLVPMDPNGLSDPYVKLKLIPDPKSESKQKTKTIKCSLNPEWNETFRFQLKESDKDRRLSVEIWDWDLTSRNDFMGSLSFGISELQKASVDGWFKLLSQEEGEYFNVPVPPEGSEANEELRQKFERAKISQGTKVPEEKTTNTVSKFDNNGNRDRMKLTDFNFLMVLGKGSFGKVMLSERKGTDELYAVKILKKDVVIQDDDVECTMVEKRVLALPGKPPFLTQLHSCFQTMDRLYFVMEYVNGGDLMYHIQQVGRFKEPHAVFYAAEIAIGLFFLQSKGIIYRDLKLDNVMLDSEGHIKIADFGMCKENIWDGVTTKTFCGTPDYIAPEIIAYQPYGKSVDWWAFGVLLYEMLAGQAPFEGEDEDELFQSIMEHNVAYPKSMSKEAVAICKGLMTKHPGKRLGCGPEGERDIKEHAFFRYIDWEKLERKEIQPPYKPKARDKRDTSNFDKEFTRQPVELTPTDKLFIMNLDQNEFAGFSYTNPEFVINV
In short: as §1

[6] = target: T2, MST1 (Homo sapiens, UniProt Q13043)
T2 construct: gene STK4
In short: as §1

[7] = target: T3, YES (Homo sapiens, UniProt P07947)
T3 construct: gene YES1
T3 sequence (P07947 whole entry): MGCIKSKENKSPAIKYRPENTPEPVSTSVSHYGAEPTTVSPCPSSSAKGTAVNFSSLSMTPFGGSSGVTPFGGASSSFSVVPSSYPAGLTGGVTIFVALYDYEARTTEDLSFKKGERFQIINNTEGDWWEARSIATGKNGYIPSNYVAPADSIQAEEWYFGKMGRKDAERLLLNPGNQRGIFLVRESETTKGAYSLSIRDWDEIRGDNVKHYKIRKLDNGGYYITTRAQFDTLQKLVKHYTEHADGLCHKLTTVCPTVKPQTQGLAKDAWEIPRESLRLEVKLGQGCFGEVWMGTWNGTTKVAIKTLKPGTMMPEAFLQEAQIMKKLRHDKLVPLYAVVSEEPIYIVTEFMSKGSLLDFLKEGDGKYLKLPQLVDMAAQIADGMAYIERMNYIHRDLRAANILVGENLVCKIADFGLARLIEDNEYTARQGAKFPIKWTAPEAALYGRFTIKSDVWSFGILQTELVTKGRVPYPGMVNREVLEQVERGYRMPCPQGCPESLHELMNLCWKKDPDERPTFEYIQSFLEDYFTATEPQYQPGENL
In short: as §1

[8] = target: T4, PDHK4 (Homo sapiens, UniProt Q16654)
T4 construct: gene PDK4
In short: as §1

[9] = target: FRK (Homo sapiens, UniProt P42685)
Chain of FRK (P42685 whole entry): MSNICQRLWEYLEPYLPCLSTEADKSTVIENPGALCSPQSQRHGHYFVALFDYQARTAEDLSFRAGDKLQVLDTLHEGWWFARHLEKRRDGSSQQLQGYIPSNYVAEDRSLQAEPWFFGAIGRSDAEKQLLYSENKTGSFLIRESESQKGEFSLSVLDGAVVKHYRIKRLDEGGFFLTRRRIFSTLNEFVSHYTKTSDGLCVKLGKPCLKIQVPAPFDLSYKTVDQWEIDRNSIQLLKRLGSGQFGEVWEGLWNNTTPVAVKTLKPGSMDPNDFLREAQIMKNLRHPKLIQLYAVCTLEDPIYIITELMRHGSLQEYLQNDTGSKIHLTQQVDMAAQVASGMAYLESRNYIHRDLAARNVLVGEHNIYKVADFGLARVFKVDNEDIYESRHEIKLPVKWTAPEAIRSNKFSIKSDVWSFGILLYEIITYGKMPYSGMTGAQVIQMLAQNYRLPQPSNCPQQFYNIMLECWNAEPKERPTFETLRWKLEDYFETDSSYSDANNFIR
In short: as §1

[10] = target: T5, PDGFRα(D842V) (Homo sapiens, UniProt P16234, D842V)
T5 construct: gene PDGFRA
T5 sequence (P16234 whole entry D842V): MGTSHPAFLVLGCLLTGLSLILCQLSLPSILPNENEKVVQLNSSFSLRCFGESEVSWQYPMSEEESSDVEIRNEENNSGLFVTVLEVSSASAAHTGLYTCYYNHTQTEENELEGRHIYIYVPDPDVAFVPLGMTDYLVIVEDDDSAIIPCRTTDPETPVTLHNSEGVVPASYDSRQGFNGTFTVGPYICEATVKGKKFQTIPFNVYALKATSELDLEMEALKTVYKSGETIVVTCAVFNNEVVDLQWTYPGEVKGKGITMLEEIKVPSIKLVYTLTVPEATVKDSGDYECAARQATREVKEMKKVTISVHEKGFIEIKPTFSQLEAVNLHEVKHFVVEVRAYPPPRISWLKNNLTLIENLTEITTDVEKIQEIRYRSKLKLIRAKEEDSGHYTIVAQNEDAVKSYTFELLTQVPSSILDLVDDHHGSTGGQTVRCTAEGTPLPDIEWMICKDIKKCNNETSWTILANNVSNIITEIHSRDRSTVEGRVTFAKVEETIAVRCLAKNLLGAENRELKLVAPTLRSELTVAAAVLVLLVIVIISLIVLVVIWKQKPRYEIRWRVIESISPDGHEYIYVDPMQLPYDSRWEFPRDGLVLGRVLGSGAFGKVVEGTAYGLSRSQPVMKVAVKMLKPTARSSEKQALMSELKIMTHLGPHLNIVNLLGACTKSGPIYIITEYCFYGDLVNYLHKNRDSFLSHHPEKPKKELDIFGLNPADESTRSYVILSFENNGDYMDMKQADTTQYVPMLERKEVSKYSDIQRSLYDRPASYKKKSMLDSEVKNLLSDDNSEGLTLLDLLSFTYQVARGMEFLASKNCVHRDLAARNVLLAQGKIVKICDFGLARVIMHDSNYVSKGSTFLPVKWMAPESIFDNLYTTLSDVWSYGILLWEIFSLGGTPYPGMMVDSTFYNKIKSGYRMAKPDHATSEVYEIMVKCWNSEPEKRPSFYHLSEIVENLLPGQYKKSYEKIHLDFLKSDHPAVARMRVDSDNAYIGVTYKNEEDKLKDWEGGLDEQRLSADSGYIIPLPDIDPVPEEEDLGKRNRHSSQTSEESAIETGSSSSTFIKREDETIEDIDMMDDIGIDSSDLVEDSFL
In short: as §1

[11] = target: T6, IKKα (Homo sapiens, UniProt O15111)
T6 construct: gene CHUK
In short: as §1

[12] = target: SRPK1 (Homo sapiens, UniProt Q96SB4)
In short: as §1

[13] = target: T7, PKACα (Homo sapiens, UniProt P17612)
T7 construct: gene PRKACA
In short: as §1

[14] = target: EGFR (Homo sapiens, UniProt P00533)
In short: as §1

[15] = target: T8, MRCKα (Homo sapiens, UniProt Q5VT25)
T8 construct: gene CDC42BPA
In short: as §1

[16] = target: BTK (Homo sapiens, UniProt Q06187)
In short: as §1

[17] = target: T9, RSK1 (Homo sapiens, UniProt Q15418)
T9 construct: gene RPS6KA1
In short: as §1

[18] = target: T10, CK2α1/β (Homo sapiens, UniProt P68400)
T10 construct: gene CSNK2A1
In short: as §1

[19] = target: EPHA1 (Homo sapiens, UniProt P21709)
In short: as §1

[20] = target: T11, CK1δ (Homo sapiens, UniProt P48730)
T11 construct: gene CSNK1D
T11 sequence (P48730 whole entry): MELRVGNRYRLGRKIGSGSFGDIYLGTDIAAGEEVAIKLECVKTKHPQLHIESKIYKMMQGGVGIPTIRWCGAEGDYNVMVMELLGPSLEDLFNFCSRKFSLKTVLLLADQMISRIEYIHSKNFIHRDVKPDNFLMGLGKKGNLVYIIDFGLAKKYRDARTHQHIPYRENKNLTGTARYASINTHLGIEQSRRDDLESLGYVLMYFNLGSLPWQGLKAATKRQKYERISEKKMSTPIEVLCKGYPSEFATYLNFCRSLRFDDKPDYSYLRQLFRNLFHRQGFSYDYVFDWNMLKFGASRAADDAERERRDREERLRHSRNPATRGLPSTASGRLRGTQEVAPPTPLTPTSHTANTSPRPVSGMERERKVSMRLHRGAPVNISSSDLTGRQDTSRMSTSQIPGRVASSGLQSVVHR
In short: as §1

[21] = target: ALK(F1174L) (Homo sapiens, UniProt Q9UM73, F1174L)
In short: as §1

[22] = target: EPHB2 (Homo sapiens, UniProt P29323)
Chain of EPHB2 (P29323 whole entry): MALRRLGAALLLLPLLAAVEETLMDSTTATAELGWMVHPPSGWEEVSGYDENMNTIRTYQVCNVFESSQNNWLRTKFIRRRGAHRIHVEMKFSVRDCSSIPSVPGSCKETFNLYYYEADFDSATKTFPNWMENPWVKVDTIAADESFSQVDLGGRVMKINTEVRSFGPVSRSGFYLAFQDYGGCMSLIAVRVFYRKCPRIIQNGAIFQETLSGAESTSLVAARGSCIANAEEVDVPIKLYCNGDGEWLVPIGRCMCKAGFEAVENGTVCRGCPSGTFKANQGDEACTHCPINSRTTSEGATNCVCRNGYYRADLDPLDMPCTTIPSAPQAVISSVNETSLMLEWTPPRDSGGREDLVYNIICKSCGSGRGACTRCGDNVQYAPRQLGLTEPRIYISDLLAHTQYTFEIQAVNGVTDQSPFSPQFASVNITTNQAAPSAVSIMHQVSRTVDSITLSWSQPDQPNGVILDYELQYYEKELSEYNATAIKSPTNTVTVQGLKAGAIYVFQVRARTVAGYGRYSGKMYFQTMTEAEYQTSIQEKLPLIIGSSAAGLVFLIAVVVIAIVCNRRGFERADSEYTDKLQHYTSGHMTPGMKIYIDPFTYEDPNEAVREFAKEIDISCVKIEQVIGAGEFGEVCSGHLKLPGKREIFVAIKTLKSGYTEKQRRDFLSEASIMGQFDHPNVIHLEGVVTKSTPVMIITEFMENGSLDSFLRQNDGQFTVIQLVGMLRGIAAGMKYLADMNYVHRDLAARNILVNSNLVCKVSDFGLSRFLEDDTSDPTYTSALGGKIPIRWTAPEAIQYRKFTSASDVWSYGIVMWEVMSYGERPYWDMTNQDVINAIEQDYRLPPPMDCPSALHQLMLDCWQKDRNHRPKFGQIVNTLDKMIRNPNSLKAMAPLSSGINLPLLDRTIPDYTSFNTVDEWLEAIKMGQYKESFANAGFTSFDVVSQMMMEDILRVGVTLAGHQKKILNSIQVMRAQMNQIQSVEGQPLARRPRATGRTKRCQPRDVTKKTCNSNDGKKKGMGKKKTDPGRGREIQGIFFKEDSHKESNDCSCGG
In short: as §1

[23] = target: T12, CK1γ1 (Homo sapiens, UniProt Q9HCP0)
T12 construct: gene CSNK1G1
In short: as §1

[24] = target: MUSK (Homo sapiens, UniProt O15146)
In short: as §1

[25] = target: CDK6/CycD3 (Homo sapiens, UniProt Q00534)
In short: as §1

[26] = target: PBK (Homo sapiens, UniProt Q96KB5)
In short: as §1

[27] = target: T13, IRR (Homo sapiens, UniProt P14616)
T13 construct: gene INSRR
In short: as §1

[28] = target: CLK2 (Homo sapiens, UniProt P49760)
In short: as §1

[29] = target: KIT(D816V) (Homo sapiens, UniProt P10721, D816V)
In short: as §1

[30] = target: PLK2 (Homo sapiens, UniProt Q9NYY3)
Chain of PLK2 (Q9NYY3 whole entry): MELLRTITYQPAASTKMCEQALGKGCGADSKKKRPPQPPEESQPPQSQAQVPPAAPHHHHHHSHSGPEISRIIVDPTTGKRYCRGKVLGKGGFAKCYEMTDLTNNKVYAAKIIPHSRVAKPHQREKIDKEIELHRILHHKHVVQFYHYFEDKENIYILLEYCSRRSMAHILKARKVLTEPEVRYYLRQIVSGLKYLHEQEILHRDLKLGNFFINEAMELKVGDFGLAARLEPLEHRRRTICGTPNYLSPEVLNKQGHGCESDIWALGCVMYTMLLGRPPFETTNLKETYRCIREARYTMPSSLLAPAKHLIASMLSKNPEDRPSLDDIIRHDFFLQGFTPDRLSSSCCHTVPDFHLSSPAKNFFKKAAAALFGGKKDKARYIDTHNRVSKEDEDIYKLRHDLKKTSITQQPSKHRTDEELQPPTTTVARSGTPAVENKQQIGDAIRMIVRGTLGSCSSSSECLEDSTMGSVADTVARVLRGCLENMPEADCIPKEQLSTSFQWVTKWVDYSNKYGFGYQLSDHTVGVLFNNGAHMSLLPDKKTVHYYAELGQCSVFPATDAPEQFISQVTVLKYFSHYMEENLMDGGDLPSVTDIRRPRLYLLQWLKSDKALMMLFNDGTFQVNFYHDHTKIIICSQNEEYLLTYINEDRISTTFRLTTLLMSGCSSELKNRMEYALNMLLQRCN
In short: as §1

[31] = target: MARK4 (Homo sapiens, UniProt Q96L34)
In short: as §1

c1cc(-c2ccc3[nH]ncc3c2)ccn1 [TG693, 5-(4-pyridinyl)-1H-indazole]
inhibition at 1 µM [1]: 0.6%
inhibition at 1 µM [2]: -3.8%
inhibition at 1 µM [3]: 18.1%
inhibition at 1 µM [4]: 14.7%
inhibition at 1 µM [5]: -11.4%
inhibition at 1 µM [6]: -1.9%
inhibition at 1 µM [7]: -9.6%
inhibition at 1 µM [8]: 3.1%
inhibition at 1 µM [9]: -2.3%
inhibition at 1 µM [10]: 0.8%
inhibition at 1 µM [11]: 14.6%
inhibition at 1 µM [12]: 0.6%
inhibition at 1 µM [13]: 9.5%
inhibition at 1 µM [14]: -10.7%
inhibition at 1 µM [15]: -18.2%
inhibition at 1 µM [16]: -9.5%
inhibition at 1 µM [17]: -4.7%
inhibition at 1 µM [18]: 3.5%
inhibition at 1 µM [19]: -2.8%
inhibition at 1 µM [20]: 21.3%
inhibition at 1 µM [21]: -6.9%
inhibition at 1 µM [22]: 0.3%
inhibition at 1 µM [23]: 5%
inhibition at 1 µM [24]: -5%
inhibition at 1 µM [25]: 9.1%
inhibition at 1 µM [26]: -3.5%
inhibition at 1 µM [27]: 3%
inhibition at 1 µM [28]: 14.9%
inhibition at 1 µM [29]: -1.1%
inhibition at 1 µM [30]: 2.9%
inhibition at 1 µM [31]: 25.1%
